Test [1] deals with Phakopsora pachyrhizi. In words: Phakopsora pachyrhizi test in soybean, greenhouse, preventive activity. In kind it is in vivo, Phakopsora pachyrhizi on soybean plants. To be noted: 24 h, spray one day before inoculation, soybean plants, read-out: control (efficacy, disease severity rating versus untreated control). The protocol: Compounds were dissolved in 2% dimethyl sulfoxide/acetone and then mixed with water containing emulsifier to the calibrated spray volume of 50 mL. Each spray solution was poured into a spray bottle for further application. To test the preventive activity of the compound, healthy young Soybean plants, raised in the greenhouse, were sprayed with the active compound preparation at the stated application rate inside the spray cabinets using hollow cone nozzles. One day aftertreatment, the plants were inoculated with a conidial suspension containing 2×10^5Phakopsora […]. The inoculated plants were then kept in a greenhouse chamber at 22-24° C. temperature and 80-90% relative humidity for disease expression. A visual assessment of the compound's performance was carried out by rating the disease severity (0-100% scale) on treated plants 3, 7, 10 and 15 days after application. Efficacy (% control) of the compound was calculated by comparing the disease rating in the treatment with the one of the untreated control. The sprayed plants were also assessed for plant damage by recording symptoms like necrosis, chlorosis and stunting.

For test [2], the system named is Parastagonospora nodorum. Kind of test: Parastagonospora nodorum (PARANO) microtiter growth inhibition assay, OD600. To be noted: 18° C., 15-18 days, read-out: control (growth inhibition by OD600). The format is cell-based. The protocol: Potato dextrose (PDB) liquid medium (Difco) containing a […] (10^5 spores/ml) spore suspension was prepared. For the inhibition assay, each test compound was solved in dimethyl sulfoxide. 100 μl of the test media-solution was added to a 96-well microtiter plate, consequently, the same volume (100 μl) of spore suspension was added to the well making the final test concentrations and the plate was incubated at 18° C. for 15-18 days. The growth inhibition was evaluated by measuring the OD600. Percent inhibition was calculated with the below formula: I=([…])*100 Where T=treatment, C═control, and B=blank

Structures are written as SMILES.

By inhibition is commonly meant how much of the control response was suppressed.

As to `CCOC(=O)Cc1cn(-c2ccc(-c3noc(C(F)(F)F)n3)cc2)cn1` [Compound 1, Ethyl 2-(1-(4-(5-(trifluoromethyl)-1,2,4-oxadiazol-3-yl)phenyl)-1H-imidazol-4-yl)acetate], in test [1], the pest or weed control at 500 ppm was not above 70%.
On the same count and under the same terms, next, `COc1ccc(NC(=O)Cc2cn(-c3ccc(-c4noc(C(F)(F)F)n4)cc3)cn2)cc1` [Compound 2, N-(4-methoxyphenyl)-2-(1-(4-(5-(trifluoromethyl)-1,2,4-oxadiazol-3-yl)phenyl)-1H-imidazol-4-yl)acetamide]: not above 70%.
For the compound `O=C(Cc1cn(-c2ccc(-c3noc(C(F)(F)F)n3)cc2)cn1)N1CCCC1` [Compound 3, 1-(pyrrolidin-1-yl)-2-(1-(4-(5-(trifluoromethyl)-1,2,4-oxadiazol-3-yl)phenyl)-1H-imidazol-4-yl)ethan-1-one], the pest or weed control at 500 ppm in test [1] was not above 70%. The inhibition at 300 ppm in test [2] is not below 70%.
In the case of `O=C(Cc1cn(-c2ccc(-c3noc(C(F)(F)F)n3)cc2)cn1)NCc1ccccc1` [Compound 4, N-benzyl-2-(1-(4-(5-(trifluoromethyl)-1,2,4-oxadiazol-3-yl)phenyl)-1H-imidazol-4-yl)acetamide], the pest or weed control at 500 ppm in test [1] was not above 70%.
Take `COc1ccc(CNC(=O)Cc2cn(-c3ccc(-c4noc(C(F)(F)F)n4)cc3)cn2)cc1` [Compound 5, N-(4-methoxybenzyl)-2-(1-(4-(5-(trifluoromethyl)-1,2,4-oxadiazol-3-yl)phenyl)-1H-imidazol-4-yl)acetamide]: the pest or weed control at 500 ppm in test [1] was not above 70%.
Take `O=C(Cc1cn(-c2ccc(-c3noc(C(F)(F)F)n3)cc2)cn1)NCc1ccc(F)cc1` [Compound 6, N-(4-fluorobenzyl)-2-(1-(4-(5-(trifluoromethyl)-1,2,4-oxadiazol-3-yl)phenyl)-1H-imidazol-4-yl)acetamide]: the pest or weed control at 500 ppm in test [1] was not above 70%. In addition, in test [2], the inhibition at 300 ppm is not below 70%.
For `O=C(Cc1cn(-c2ccc(-c3noc(C(F)(F)F)n3)cc2)cn1)NCc1ccccc1F` [Compound 7, N-(2-fluorobenzyl)-2-(1-(4-(5-(trifluoromethyl)-1,2,4-oxadiazol-3-yl)phenyl)-1H-imidazol-4-yl)acetamide], in test [1], the pest or weed control at 500 ppm is not above 70%.
For `Cc1ccc(NC(=O)Cc2cn(-c3ccc(-c4noc(C(F)(F)F)n4)cc3)cn2)cc1` [Compound 8, N-(p-tolyl)-2-(1-(4-(5-(trifluoromethyl)-1,2,4-oxadiazol-3-yl)phenyl)-1H-imidazol-4-yl)acetamide], the pest or weed control at 500 ppm in test [1] was not above 70%.
Take `O=C(Cc1cn(-c2ccc(-c3noc(C(F)(F)F)n3)cc2)cn1)Nc1ccc(Cl)cc1` [Compound 9, N-(4-chlorophenyl)-2-(1-(4-(5-(trifluoromethyl)-1,2,4-oxadiazol-3-yl)phenyl)-1H-imidazol-4-yl)acetamide]: the pest or weed control at 500 ppm in test [1] is not above 70%.
The same measure, in the same setting: the figure for `O=C(Cc1cn(-c2ccc(-c3noc(C(F)(F)F)n3)cc2)cn1)Nc1cccc(F)c1` [Compound 10, N-(3-fluorophenyl)-2-(1-(4-(5-(trifluoromethyl)-1,2,4-oxadiazol-3-yl)phenyl)-1H-imidazol-4-yl)acetamide] is not above 70%.
For the compound `O=C(Cc1cn(-c2ccc(-c3noc(C(F)(F)F)n3)cc2)cn1)N1CCCCC1` [Compound 11, 1-(piperidin-1-yl)-2-(1-(4-(5-(trifluoromethyl)-1,2,4-oxadiazol-3-yl)phenyl)-1H-imidazol-4-yl)ethan-1-one], the pest or weed control at 500 ppm in test [1] is not above 70%.
Turning to `COc1cccc(NC(=O)Cc2cn(-c3ccc(-c4noc(C(F)(F)F)n4)cc3)cn2)c1` [Compound 12, N-(3-methoxyphenyl)-2-(1-(4-(5-(trifluoromethyl)-1,2,4-oxadiazol-3-yl)phenyl)-1H-imidazol-4-yl)acetamide], the pest or weed control at 500 ppm in test [1] was not above 70%.
For the compound `O=C(Cc1cn(-c2ccc(-c3noc(C(F)(F)F)n3)cc2)cn1)Nc1cccnc1` [Compound 13, N-(pyridin-3-yl)-2-(1-(4-(5-(trifluoromethyl)-1,2,4-oxadiazol-3-yl)phenyl)-1H-imidazol-4-yl)acetamide], the pest or weed control at 500 ppm in test [1] was not above 70%.
Still for that read-out and setting: next, `O=C(Cc1cn(-c2ccc(-c3noc(C(F)(F)F)n3)cc2)cn1)Nc1ccccc1Br` [Compound 14, N-(2-bromophenyl)-2-(1-(4-(5-(trifluoromethyl)-1,2,4-oxadiazol-3-yl)phenyl)-1H-imidazol-4-yl)acetamide]: not above 70%.
`O=C(Cc1cn(-c2ccc(-c3noc(C(F)(F)F)n3)cc2)cn1)Nc1ccccc1` [Compound 15, N-phenyl-2-(1-(4-(5-(trifluoromethyl)-1,2,4-oxadiazol-3-yl)phenyl)-1H-imidazol-4-yl)acetamide]: the pest or weed control at 500 ppm in test [1] is not above 70%. Besides, in test [2], the inhibition at 300 ppm is not below 70%.
For the compound `COc1ccc(C)c(NC(=O)Cc2cn(-c3ccc(-c4noc(C(F)(F)F)n4)cc3)cn2)c1` [Compound 16, N-(5-methoxy-2-methylphenyl)-2-(1-(4-(5-(trifluoromethyl)-1,2,4-oxadiazol-3-yl)phenyl)-1H-imidazol-4-yl)acetamide], the pest or weed control at 500 ppm in test [1] is not above 70%. Further, the inhibition at 300 ppm in test [2] was not below 70%.
In the case of `COc1cc(F)ccc1NC(=O)Cc1cn(-c2ccc(-c3noc(C(F)(F)F)n3)cc2)cn1` [Compound 17, N-(4-fluoro-2-methoxyphenyl)-2-(1-(4-(5-(trifluoromethyl)-1,2,4-oxadiazol-3-yl)phenyl)-1H-imidazol-4-yl)acetamide], the pest or weed control at 500 ppm in test [1] was not above 70%. In addition, in test [2], the inhibition at 300 ppm was not below 70%.
`Cc1ccccc1S(C)(=O)=NC(=O)c1cnn(-c2ccc(-c3noc(C(F)(F)F)n3)cc2)c1` (stereo not drawn) [Compound 19, N-(methyl(oxo)(o-tolyl)-λ^6-sulfaneylidene)-1-(4-(5-(trifluoromethyl)-1,2,4-oxadiazol-3-yl)phenyl)-1H-pyrazole-4-carboxamide]: the pest or weed control at 500 ppm in test [1] was not above 70%.
Turning to `COc1ccccc1S(C)(=O)=NC(=O)c1cnn(-c2ccc(-c3noc(C(F)(F)F)n3)cc2)c1` (stereo not drawn) [Compound 20, N-((2-methoxyphenyl)(methyl)(oxo)-λ^6-sulfaneylidene)-1-(4-(5-(trifluoromethyl)-1,2,4-oxadiazol-3-yl)phenyl)-1H-pyrazole-4-carboxamide], the pest or weed control at 500 ppm in test [1] was not above 70%.
Consider `COc1ccc(S(C)(=O)=NC(=O)c2cnn(-c3ccc(-c4noc(C(F)(F)F)n4)cc3)c2)cc1` (stereo not drawn) [Compound 21, N-((4-methoxyphenyl)(methyl)(oxo)-λ^6-sulfaneylidene)-1-(4-(5-(trifluoromethyl)-1,2,4-oxadiazol-3-yl)phenyl)-1H-pyrazole-4-carboxamide], for which, in test [1], the pest or weed control at 500 ppm was not above 70%.
The same measure, in the same setting: the figure for `CS(=O)(=NC(=O)c1cnn(-c2ccc(-c3noc(C(F)(F)F)n3)cc2)c1)c1ccccc1` (stereo not drawn) [Compound 22, N-(methyl(oxo)(phenyl)-λ^6-sulfaneylidene)-1-(4-(5-(trifluoromethyl)-1,2,4-oxadiazol-3-yl)phenyl)-1H-pyrazole-4-carboxamide] is not above 70%; for `CS(=O)(=NC(=O)c1cnn(-c2ccc(-c3noc(C(F)(F)F)n3)cc2)c1)c1cccc(F)c1` (stereo not drawn) [Compound 23, N-((3-fluorophenyl)(methyl)(oxo)-λ^6-sulfanylidene)-1-(4-(5-(trifluoromethyl)-1,2,4-oxadiazol-3-yl)phenyl)-1H-pyrazole-4-carboxamide] it is not above 70%.
Consider `Cc1cccc(S(C)(=O)=NC(=O)c2ccn(-c3ccc(-c4noc(C(F)(F)F)n4)cc3)c2)c1` (stereo not drawn) [Compound 24, N-(methyl(oxo)(m-tolyl)-λ^6-sulfanylidene)-1-(4-(5-(trifluoromethyl)-1,2,4-oxadiazol-3-yl)phenyl)-1H-pyrrole-3-carboxamide], for which, in test [2], the inhibition at 300 ppm is not below 70%.
Take `COCCS(=O)(=NC(=O)c1ccn(-c2ccc(-c3noc(C(F)(F)F)n3)cc2)c1)c1ccccn1` (stereo not drawn) [Compound 25, N-((2-methoxyethyl)(oxo)(pyridin-2-yl)-λ^6-sulfanylidene)-1-(4-(5-(trifluoromethyl)-1,2,4-oxadiazol-3-yl)phenyl)-1H-pyrrole-3-carboxamide]: the pest or weed control at 500 ppm in test [1] is not above 70%.
Take `CS(=O)(=NC(=O)c1ccn(-c2ccc(-c3noc(C(F)(F)F)n3)cc2)c1)c1ccc(F)cc1` (stereo not drawn) [Compound 27, N-((4-fluorophenyl)(methyl)(oxo)-λ^6-sulfanylidene)-1-(4-(5-(trifluoromethyl)-1,2,4-oxadiazol-3-yl)phenyl)-1H-pyrrole-3-carboxamide]: the pest or weed control at 500 ppm in test [1] was not above 70%.
Turning to `COc1ccnc(S(C)(=O)=NC(=O)c2ccn(-c3ccc(-c4noc(C(F)(F)F)n4)cc3)c2)c1` (stereo not drawn) [Compound 29, N-((4-methoxypyridin-2-yl)(methyl)(oxo)-λ^6-sulfanylidene)-1-(4-(5-(trifluoromethyl)-1,2,4-oxadiazol-3-yl)phenyl)-1H-pyrrole-3-carboxamide], in test [1], the pest or weed control at 500 ppm is not above 70%. The inhibition at 300 ppm in test [2] is not below 70%.
`FC(F)(F)c1nc(-c2ccc(-n3cnc(CSc4ccccc4)c3)cc2)no1` [Compound 43, 3-(4-(4-((phenylthio)methyl)-1H-imidazol-1-yl)phenyl)-5-(trifluoromethyl)-1,2,4-oxadiazole]: the inhibition at 300 ppm in test [2] is not below 70%.

The values are drawn from US20220348567A1, “NOVEL OXADIAZOLE COMPOUNDS CONTAINING 5- MEMBERED HETEROAROMATIC RING FOR CONTROLLING OR PREVENTING PHYTOPATHOGENIC FUNGI” (PI INDUSTRIES LTD., priority 2019, published 2022).
